Test results as given in US20110293593A1, “SIVA 2 STABILIZATION” (YEDA RESEARCH AND DEVELOPMENT CO., LTD., priority 2008, published 2011).
Peptide text beside a SMILES is read from it. * marks the point of attachment. Cbz = O=C(OCc1ccccc1)*

Key:
SIVA2 [1] = experiment: SIVA2 level/stabilization in transfected HEK-293T and EcR-293 cells, western blotting; type: cell-based, human
Procedure: (A) Expression of SIVA1 and SIVA2 in various cell lines. For each cell line, cellular protein (30 μg) was resolved by 13.5% SDS-PAGE and probed with anti-SIVA antibody. The two lanes at the right show SIVA1 and SIVA2 overexpressed in HEK-293T cells (for each protein, 2 μg cDNA/well in 6-well plates). (B) Several SIVA isoforms are expressed in PBMCs. […] (C) Ligand activation increases the amount of SIVA2 in resting PBMCs. Cells (2×10^6) were treated with the indicated ligands for 8 h and the cell lysates were analyzed by western blotting. […] The cells were stimulated with PHA (1 μg/ml) for 48 h, washed twice with phosphate-buffered saline, and incubated for an additional period of 18 h without PHA. Ligands and genotoxic agents (camptothecin (CPT) 10 μM and cisplatin (CIS) 50 μM) were then applied for 18 h. MG132 was applied for the last 4 h of treatment. Except where otherwise indicated, MG132 was applied in this study at a concentration of […] denotes a non-specific band serving as loading control. […] PBMCs were activated as in FIG. 1d. Ligands were applied to the indicated cell types for 18 h. Semi-quantitative RT-PCR for SIVA message was performed as described in Methods. GAPDH was used as a basis for normalization. […] SIVA2 or SIVA1 plasmids (0.5 μg) were transfected, and 18 h later ligands were applied for 8 h. Total-cell lysates were analyzed by western blotting using anti-SIVA antibody. TNF-induced SIVA2 stabilization was assessed in EcR-293-CD27 cells. (G) Inducibly expressed SIVA2 is stabilized by CD70. EcR-293-CD27-SIVA2 cells (see Methods) were treated with ponasterone and CD70 as indicated. Total-cell lysates were analyzed by western blotting using LDH as the loading control (bottom panel). […] HEK-293T cells were transfected with FLAG-SIVA2 and analyzed 24 h after transfection. MG132 was applied for the last 4 h of treatment. TCL, total cell lysate. (I) Differential effects of genotoxic agents on the expression of SIVA1 and SIVA2. Top: HepG2 cells were treated with CPT for 18 h. When indicated, they were transfected with pSUPER SIVA 30 h prior to CPT application. Cells lysates were analyzed by western blotting using anti-SIVA antibody. Middle: HepG2 cells were exposed to UVC (20 J/m^2) and levels of SIVA proteins were determined after 18 h of treatment. […] Bottom: HEK-293T cells were transfected with 0.5 μg of FLAG-SIVA2. CPT and CD40L were applied, 8 h after transfection, for a further 18 h.
HEK-293T cells cotransfected with NIK and SIVA2 were metabolically labeled with azido-GlcNAc, in-vitro biotinylated, and immunoprecipitated. The biotin-labeled GlcNAc moieties in SIVA2 were detected with streptavidin horseradish peroxidase (HRP). (B) SIVA binds to wheatgerm-agglutinin. The plasmids for SIVA2, alone or together with NIK or TRAF2, were transiently expressed in HEK-293T cells. Lactacystin was applied for the last 6 h of the 24-h treatment period. Lysates were analyzed for expression (right panel) and WGA binding (left panel) of SIVA2. N-acetyl-D-glucosamine (0.5 M) was added as a competitor for WGA binding. […] FLAG-SIVA2 was cotransfected with myc-NIK into HEK-293T cells and immunoprecipitated with anti-FLAG-M2 beads. The immunoprecipitated beads were boiled with 1% SDS and the eluted proteins were treated with […] hexosaminidase as described (Whelan, 2006). The samples were collected after treatment for 4, 8, and 20 h, diluted with WGA binding buffer, and lectin binding was assayed as described in Methods. Immunoprecipitation of the protein with anti-FLAG-M2 beads after treatment for 8 h as described above, followed by western analysis, confirmed that despite having lost the ability to bind to WGA the protein remained intact. ‘Sup’, SIVA protein remaining unbound after the reaction. […] The plasmids were transiently expressed in HEK-293T cells. DON (50 μM) was applied for the last 16 h and MG132 for the last 6 h of the 28-h treatment period. […] The experiment was performed as in (D). […]

SIVA2 [2] = experiment: SIVA2 protein level in PBMCs, western blotting with anti-SIVA antibody; type: cell-based, human; conditions: for SIVA2 levels in activated PBMCs: PHA-activated PBMCs, CPT 10 μM, CIS 50 μM for 18 h, MG132 last 4 h; for SIVA2 expression: resting PBMCs, ligands for 8 h
Procedure: For each cell line, cellular protein (30 μg) was resolved by 13.5% SDS-PAGE and probed with anti-SIVA antibody. The two lanes at the right show SIVA1 and SIVA2 overexpressed in HEK-293T cells (for each protein, 2 μg cDNA/well in 6-well plates). […] Cells (2×10^6) were treated with the indicated ligands for 8 h and the cell lysates were analyzed by western blotting. […] The cells were stimulated with PHA (1 μg/ml) for 48 h, washed twice with phosphate-buffered saline, and incubated for an additional period of 18 h without PHA. Ligands and genotoxic agents (camptothecin (CPT) 10 μM and cisplatin (CIS) 50 μM) were then applied for 18 h. MG132 was applied for the last 4 h of treatment. Except where otherwise indicated, MG132 was applied in this study at a concentration of […] denotes a non-specific band serving as loading control. […] PBMCs were activated as in FIG. 1d. Ligands were applied to the indicated cell types for 18 h. Semi-quantitative RT-PCR for SIVA message was performed as described in Methods. GAPDH was used as a basis for normalization. […] SIVA2 or SIVA1 plasmids (0.5 μg) were transfected, and 18 h later ligands were applied for 8 h. Total-cell lysates were analyzed by western blotting using anti-SIVA antibody. […] EcR-293-CD27-SIVA2 cells (see Methods) were treated with ponasterone and CD70 as indicated. Total-cell lysates were analyzed by western blotting using LDH as the loading control (bottom panel). […] HEK-293T cells were transfected with FLAG-SIVA2 and analyzed 24 h after transfection. MG132 was applied for the last 4 h of treatment. TCL, total cell lysate. […] Top: HepG2 cells were treated with CPT for 18 h. When indicated, they were transfected with pSUPER SIVA 30 h prior to CPT application. Cells lysates were analyzed by western blotting using anti-SIVA antibody. Middle: HepG2 cells were exposed to UVC (20 J/m^2) and levels of SIVA proteins were determined after 18 h of treatment. […] Bottom: HEK-293T cells were transfected with 0.5 μg of FLAG-SIVA2. CPT and CD40L were applied, 8 h after transfection, for a further 18 h.
Cells. Peripheral-blood mononuclear cells (PBMCs) were isolated from buffy-coat samples and cultured as described (Ramakrishnan et al., 2004). Ecdysone-inducible EcR-293-CD27 cell lines expressing SIVA2 (EcR-293-CD27-SIVA2) or SIVA1 (EcR-293-CD27-SIVA1) and EcR-293-CD40 were generated by transfection using the calcium phosphate method according to the instructions of the manufacturer (Invitrogen). All adherent cells—HEK-293T, EcR-293 (Invitrogen), HeLa, HeLa T-REx (Invitrogen), and HepG2—were cultured in Dulbecco's modified Eagle's medium. Both culture media were supplemented with 10% fetal calf serum, 100 U/ml pencillin, and 100 μg/ml streptomycin. The human lymphoblastoid lines Ramos (Human Burkitt's lymphoma cell line) and BJAB (B-lymphoblastoma cell line) were cultured in RPMI medium. Ecdysone-inducible EcR293-CD27 and EcR293-CD40 cell lines were generated by their stable transfection with cDNAs for human CD27 and CD40, respectively. EcR293-CD27 cell lines expressing SIVA2 (EcR293-CD27-SIVA2) or SIVA1 (EcR293-CD27-SIVA1) were generated by transfection using the calcium phosphate method, and myc NIK and myc NIK (K670A) were later introduced into these cells by retroviral transduction and selection with 1 μg/ml puromycin. Ramos cells constitutively expressing myc-NIK were generated by retroviral transduction, followed by selection with 1 μg/ml puromycin. […]

SIVA1 = SIVA1 protein level in PBMCs, western blotting with anti-SIVA antibody; type: cell-based, human; conditions: resting PBMCs, ligands for 8 h
Procedure: For each cell line, cellular protein (30 μg) was resolved by 13.5% SDS-PAGE and probed with anti-SIVA antibody. The two lanes at the right show SIVA1 and SIVA2 overexpressed in HEK-293T cells (for each protein, 2 μg cDNA/well in 6-well plates). […] Cells (2×10^6) were treated with the indicated ligands for 8 h and the cell lysates were analyzed by western blotting. […] The cells were stimulated with PHA (1 μg/ml) for 48 h, washed twice with phosphate-buffered saline, and incubated for an additional period of 18 h without PHA. Ligands and genotoxic agents (camptothecin (CPT) 10 μM and cisplatin (CIS) 50 μM) were then applied for 18 h. MG132 was applied for the last 4 h of treatment. Except where otherwise indicated, MG132 was applied in this study at a concentration of […] denotes a non-specific band serving as loading control. […] Semi-quantitative RT-PCR for SIVA message was performed as described in Methods. […] Total-cell lysates were analyzed by western blotting using anti-SIVA antibody. […] Total-cell lysates were analyzed by western blotting using LDH as the loading control (bottom panel). […] HEK-293T cells were transfected with FLAG-SIVA2 and analyzed 24 h after transfection. […] Cells lysates were analyzed by western blotting using anti-SIVA antibody. Middle: HepG2 cells were exposed to UVC (20 J/m^2) and levels of SIVA proteins were determined after 18 h of treatment. […]

cIAP1 [3] = target: T1, cIAP1 (human, UniProt Q13490 1-618); experiment: immunoprecipitation of endogenous cIAP1 from transfected HEK293T cells (FIG. 6D right panel)
T1 construct: Also used for general sentences that say only 'cIAP1'; also called endogenous cIAP1
T1 sequence (Q13490 whole entry): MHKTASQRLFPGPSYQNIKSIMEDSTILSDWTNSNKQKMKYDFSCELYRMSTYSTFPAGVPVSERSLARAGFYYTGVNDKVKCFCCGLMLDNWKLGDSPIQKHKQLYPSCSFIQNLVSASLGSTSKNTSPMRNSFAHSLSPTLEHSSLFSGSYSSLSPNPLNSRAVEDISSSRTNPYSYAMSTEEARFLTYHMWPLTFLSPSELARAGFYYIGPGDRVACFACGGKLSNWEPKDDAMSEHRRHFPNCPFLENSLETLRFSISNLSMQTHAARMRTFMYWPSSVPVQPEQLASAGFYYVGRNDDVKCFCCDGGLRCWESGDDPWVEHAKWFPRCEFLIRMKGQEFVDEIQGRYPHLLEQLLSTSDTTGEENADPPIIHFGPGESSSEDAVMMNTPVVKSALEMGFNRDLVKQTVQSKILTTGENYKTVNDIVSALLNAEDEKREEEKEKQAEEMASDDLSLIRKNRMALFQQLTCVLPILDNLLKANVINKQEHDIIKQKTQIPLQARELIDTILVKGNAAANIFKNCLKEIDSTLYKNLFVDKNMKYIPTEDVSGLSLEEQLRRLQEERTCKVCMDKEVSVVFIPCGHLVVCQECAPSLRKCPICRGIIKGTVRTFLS
Procedure: (§1) Left panel: Binding in vitro. […] Right and bottom panels depict binding in transfected HEK293T cells. […] After 28 h the endogenous cIAP1 was immunoprecipitated. MG132 was applied for the last 6 h of incubation. […] After 28 h the transfected proteins were immunoprecipitated and probed for co-precipitated endogenous cIAP1. MG132 was applied for the last 6 h of incubation. […] N/A, not analyzed. The asterisk denotes assessment in the yeast two-hybrid test. […] The indicated plasmids were co-transfected into HEK293T cells.

cIAP1 [4] = target: T1, cIAP1; experiment: immunoprecipitation of the transfected protein, probed for co-precipitated endogenous cIAP1 (FIG. 6D bottom panel)
Procedure: as §1

[5] = HEK-293T, FLAG-SIVA2, MG132 last 4 h

CC(=O)N[C@H]1[C@@H](OCc2ccccc2)O[C@H](CO)[C@H](O)[C@@H]1O [BADGP, benzyl-α-GalNAc]
NIK-induced SIVA2 stabilization (SIVA2 [1]; HEK-293T, NIK + SIVA2, 0.7, 1.4, or 2.0 mM BADGP last 16 h of 28 h): blocks NIK-induced SIVA2 stabilization

N.N.[Cl][Pt][Cl] [CIS, cisplatin]
SIVA2 levels in activated PBMCs (SIVA2 [2]): but not genotoxic stress, increase SIVA2 levels

CC[C@@]1(O)C(=O)OCc2c1cc1n(c2=O)Cc2cc3ccccc3nc2-1 [CPT, camptothecin]
SIVA2 levels in activated PBMCs (SIVA2 [2]): but not genotoxic stress, increase SIVA2 levels
cytokine (CD40)-induced stabilization/enhancement of SIVA2 under genotoxic agent (SIVA2 [1]; HEK-293T, FLAG-SIVA2, CPT and CD40L for 18 h): decreased

[N-]=[N+]=CC(=O)CC[C@H](N)C(=O)O [DON, 6-diazo-5-oxo-L-norleucine]
MG132-induced SIVA2 stabilization (SIVA2 [1]; HEK-293T, DON 50 μM last 16 h, MG132 last 6 h): does not affect MG132-induced stabilization
TRAF2-induced SIVA2 stabilization (SIVA2 [1]; HEK-293T, DON 50 μM last 16 h of 28 h): interferes with TRAF2-induced SIVA2 stabilization
NIK-mediated stabilization of wild-type SIVA2 (SIVA2 [1]; HEK-293T, DON as in FIG. 3D): blocks the NIK-mediated stabilization of wild-type SIVA2
residual stabilization by NIK of the SIVA2 6SA mutant (SIVA2 [1]; HEK-293T, DON as in FIG. 3D): has no effect on the residual stabilization by NIK of the SIVA2 6SA mutant

CC(C)C[C@@H](C=O)NC(=O)[C@H](CC(C)C)NC(=O)[C@H](CC(C)C)NC(=O)OCc1ccccc1 [MG132] (Cbz-Leu-Leu-Leu-aldehyde)
SIVA2 levels in activated PBMCs (SIVA2 [2]): increase SIVA2 levels
accumulation of polyubiquitinated SIVA2 (SIVA2 [1]; [5]): enhances accumulation of the polyubiquitinated protein
stabilization of transiently expressed SIVA2 (SIVA2 [1]; [5]): stabilizes transiently expressed SIVA2
stabilization of SIVA2 (1-58) (SIVA N-terminus) (SIVA2 [1]; HEK-293T, MG132 25 uM last 6 h of 24 h): stabilizes SIVA N-terminus
stabilization of SIVA2 serine mutants (SIVA2 [1]; HEK-293T, MG132 added 18 h after transfection for 6 h): stabilize the SIVA2 serine mutants that cannot be stabilized by NIK

B1: CD70: CD27 ligand; mCD70 produced by large-scale transfection of HEK-293T cells (protein, UniProt O55237 1-195, looked up)
CD70 antigen: MPEEGRPCPWVRWSGTAFQRQWPWLLLVVFITVFCCWFHCSGLLSKQQQRLLEHPEPHTAELQLNLTVPRKDPTLRWGAGPALGRSFTHGPELEEGHLRIHQDGLYRLHIQVTLANCSSPGSTLQHRATLAVGICSPAAHGISLLRGRFGQDCTVALQRLTYLVHGDVLCTNLTLPLLPSRNADETFFGVQWICP
SIVA1 expression (SIVA1): did not affect
SIVA2 expression (SIVA2 [2]): extensive enhancement
stabilization of inducibly expressed SIVA2 (SIVA2 [1]; EcR-293-CD27-SIVA2 cells, ponasterone): stabilized

B2: CD154: CD40 ligand; hCD40L produced by large-scale transfection of HEK-293T cells (protein, UniProt P29965 113-261, looked up)
CD40 ligand, soluble form: MQKGDQNPQIAAHVISEASSKTTSVLQWAEKGYYTMSNNLVTLENGKQLTVKRQGLYYIYAQVTFCSNREASSQAPFIASLCLKSPGRFERILLRAANTHSSAKPCGQQSIHLGGVFELQPGASVFVNVTDPSQVSHGTGFTSFGLLKL
SIVA1 expression (SIVA1): did not affect
SIVA2 expression (SIVA2 [2]): extensive enhancement

B3: HIS-SIVA2 (other, not shown: small tags and cut ends)
chain: MPKRSCPFADVAPLQLKVRVSQRELSRGVCAERYSQEVFDPSGVASIACSSCVRAVDGKAVCGQCERALCGQCVRTCWGCGSVACTLCGLVDCSDMYEKVLCTSCAMFET
notes: Expressed by transfection in HEK293T cells
binding result (cIAP1 [3]): binds

B4: HIS-SIVA2 (1-58) (other, not shown: small tags and cut ends)
chain: MPKRSCPFADVAPLQLKVRVSQRELSRGVCAERYSQEVFDPSGVASIACSSCVRAVDG
notes: also called SIVA N-terminus
binding result (cIAP1 [3]): binds

B5: FLAG-SIVA2 (1-58) (other, not shown: small tags and cut ends)
chain: B4 chain
notes: also called SIVA N-terminus
binding result (cIAP1 [4]): binds
